Reference: ChEMBL document CHEMBL4308881, “Tetradehydrohalicyclamine B, a new proteasome inhibitor from the marine sponge Acanthostrongylophora ingens” (Bioorg Med Chem Lett, 2019)
The source made the active and inactive calls. The rule behind the calls is not given here.

How the values were obtained:
Assay type in all cases: cell-based
[1] = molecular target: T1, Proteasome subunit beta type-9 (Homo sapiens, UniProt P28065); test: Inhibition of 20s immunoproteasome LMP2 in human erythrocytes using Ac-Pro-Ala-Leu-MCA as substrate preincubated for 10 mins followed by substrate addition and measured after 6 hrs by fluorescence assay
T1 sequence (P28065 whole entry): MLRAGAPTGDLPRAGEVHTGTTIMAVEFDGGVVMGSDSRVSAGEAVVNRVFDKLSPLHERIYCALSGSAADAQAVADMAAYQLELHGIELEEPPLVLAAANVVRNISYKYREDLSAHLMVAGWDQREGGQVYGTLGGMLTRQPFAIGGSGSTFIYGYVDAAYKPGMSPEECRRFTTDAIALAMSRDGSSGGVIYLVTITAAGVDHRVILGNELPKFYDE

[2] = molecular target: T2, Proteasome subunit beta type-8 (Homo sapiens, UniProt P28062); test: Inhibition of 20s immunoproteasome LMP7 in human erythrocytes using Suc-Leu-Leu-ValTyr-MCA as substrate preincubated for 10 mins followed by substrate addition and measured after 6 hrs by fluorescence assay
T2 sequence (P28062 whole entry): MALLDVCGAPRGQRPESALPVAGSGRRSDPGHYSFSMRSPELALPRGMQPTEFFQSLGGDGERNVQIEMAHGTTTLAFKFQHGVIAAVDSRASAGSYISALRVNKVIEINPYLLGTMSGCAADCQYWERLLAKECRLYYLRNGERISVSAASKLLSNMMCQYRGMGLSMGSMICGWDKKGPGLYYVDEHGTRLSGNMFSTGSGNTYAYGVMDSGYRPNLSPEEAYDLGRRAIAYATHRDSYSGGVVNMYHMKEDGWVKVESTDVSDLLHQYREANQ

[3] = molecular target: T3, Proteasome Macropain subunit MB1 (Homo sapiens, UniProt P28074); test: Inhibition of 20s constitutive proteasome beta5 chymotrypsin-like activity in human erythrocytes using Suc-Leu-Leu-ValTyr-MCA as substrate preincubated for 10 mins followed by substrate addition and measured after 6 hrs by fluorescence assay
T3 sequence (P28074 whole entry): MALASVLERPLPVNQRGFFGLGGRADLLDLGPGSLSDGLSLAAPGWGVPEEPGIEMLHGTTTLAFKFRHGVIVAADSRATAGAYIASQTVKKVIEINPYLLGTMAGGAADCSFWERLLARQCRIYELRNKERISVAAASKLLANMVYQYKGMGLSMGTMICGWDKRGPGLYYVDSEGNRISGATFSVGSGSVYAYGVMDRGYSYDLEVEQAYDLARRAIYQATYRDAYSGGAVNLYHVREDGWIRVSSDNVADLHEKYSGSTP

[4] = molecular target: T4, Proteasome subunit beta type-10 (Homo sapiens, UniProt P40306); test: Inhibition of 20s immunoproteasome MECL1 in human erythrocytes using Suc-Leu-Leu-ValTyr-MCA as substrate preincubated for 10 mins followed by substrate addition and measured after 6 hrs by fluorescence assay
T4 sequence (P40306 whole entry): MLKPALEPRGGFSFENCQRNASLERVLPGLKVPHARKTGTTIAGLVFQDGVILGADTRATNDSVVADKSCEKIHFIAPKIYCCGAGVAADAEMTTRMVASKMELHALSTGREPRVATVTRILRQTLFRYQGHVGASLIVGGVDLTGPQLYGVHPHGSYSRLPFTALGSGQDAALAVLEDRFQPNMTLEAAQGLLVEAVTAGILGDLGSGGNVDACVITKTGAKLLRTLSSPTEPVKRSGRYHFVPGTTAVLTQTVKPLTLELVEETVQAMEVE

HeLa [5] = test: Cytotoxicity against human HeLa cells after 3 days by MTT assay; details: 72 h
[6] = molecular target: T5, Proteasome subunit beta type-10 (Homo sapiens) (UniProt P40306); test: Inhibition of 20s immunoproteasome MECL1 in human erythrocytes at 15 uM using Suc-Leu-Leu-ValTyr-MCA as substrate preincubated for 10 mins followed by substrate addition and measured after 6 hrs by fluorescence assay
T5 sequence (whole entry): T4 sequence (P40306 whole entry)

HeLa [7] = test: Cytotoxicity against human HeLa cells at 50 uM after 3 days by MTT assay; details: 72 h

IC50 [1] | IC50 [2] | IC50 [3] | IC50 [4] | inhibition [6] | Compound | IC50 (HeLa [5]) | Activity (HeLa [7])
0.44 µM | 0.63 µM | 0.42 µM | 8 µM | – | C1=C2CN3CCCC/C=C\CC[C@@H]4CN(CCCC/C=C\CC[C@H]1C3)CC[C@@H]24 | 12 µM | –
3.1 µM | 4.1 µM | 1.8 µM | – | inactive | C1=C\CCc2cc3c[n+](c2)CCCC/C=C\CC[C@@H]2CN(CCCC/1)CC[C@@H]32 | – | Non-Toxic
